From BindingDB's records for doi:10.1016/s0960-894x(98)00318-7 (National Taiwan University, 1999)
pKi: −log10 of the molar value.

Experiment: Binding affinity against Opioid receptor delta 1 was determined in brain membrane preparations from male Hartley guinea-pigs

| Compound | pKi |
| --- | --- |
| CN1CCC2(CC1)COc1c(O)cccc12 [1'-methylspiro[2,3-dihydrobenzo[b]furan-3,4'-(hexahydropyridine)]-7-ol] | < 4.00 |
| CCC1Oc2c(O)cccc2C12CCN(C)CC2 (stereo not drawn) [2-ethyl-1'-methylspiro[2,3-dihydrobenzo[b]furan-3,4'-(hexahydropyridine)]-7-ol] | 6.07 |
| CC1Oc2c(O)cccc2C12CCN(C)CC2 (stereo not drawn) [1',2-dimethylspiro[2,3-dihydrobenzo[b]furan-3,4'-(hexahydropyridine)]-7-ol] | 5.62 |
